Read-outs that look alike come from different tables or passages of the source.
Experiment: Stability of 1.25 mM coelenterazine-h-h in 50% ethanol and 50% propylene glycol with or without 225 mM ATT, HPLC and Arrhenius plots
Format: physicochemical
Description: The stability of coelenterazine-h-h in the presence and absence of ATT was measured over time at different temperatures. Specifically, 1.25 mM coelenterazine-h-h was present in a solution of 50% ethanol and 50% propylene glycol (i.e., the solution without ATT) or a solution of 50% ethanol and 50% propylene glycol with 225 mM ATT (i.e., the solution with ATT). These two solutions were incubated at −20° C., room temperature (RT), 40° C., or 60° C. and analyzed at 0 days, 1 day, 3 days, 7 days, 15 days, and 30 days.
Following incubation, high performance liquid chromatography (HPLC) was utilized to identify the components of the respective solutions at each time point. Specifically, an Agilent 1100 HPLC instrument was used and equipped with a quaternary pump, thermostatted autosampler and column compartment, and a G1311B diode-array detector. The column used was a Synergi-MAX-RP (Phenomenex, Torrance, Calif.) 100 AÅ 50×4.6 2.5 μm. The run on the HPLC was a gradient run with 0.1% TFA in water and acetonitrile. Absorbance was measured at 262 nanometers (nm). Standards of coelenterazine-h-h and its known degradants were run to confirm both the retention time and absorbance trace. 5 μl of each solution was injected and the retention time of coelenterazine-h-h at room temperature was 5.5 minutes.
The results of the HPLC analysis are shown below in Tables 7 and 8 and FIGS. 3A and 3B, in which the values are reported as relative peak area percentage at 262 nm (i.e., the lamba max of the substrate). […] In each of FIGS. 3A and 3B, diamond is 1.25 mM coelenterazine-h-h incubated over time with or without 225 mM ATT, respectively, at −20° C., triangle is 1.25 mM coelenterazine-h-h incubated over time with or without 225 mM ATT, respectively, at room temperature (RT), star is 1.25 mM coelenterazine-h-h incubated over time with or without 225 mM ATT, respectively, at 40° C., and cross is 1.25 mM coelenterazine-h-h incubated over time with or without 225 mM ATT, respectively, at 60° C.
From the HPLC analysis, the half-life of coelenterazine-h-h in the presence of ATT at 60° C. was calculated to be 10 days while the half-life of coelenterazine-h-h in the absence of ATT at 40° C. and 60° C. was calculated to be 27 days and 8 days, respectively (see Table 9 below).
Additionally, Arrhenius plots were generated for coelenterazine-h-h in the presence and absence of ATT to calculate the half-life of coelenterazine-h-h at various temperatures. The Arrhenius equation is as follows: […]
In FIG. 11, the slope was −10740.9, the intercept was 30.0575, and R^2 was 0.9967.
In FIG. 12, the […], and R^2 was 0.9648.

[1] = decomposition of coelenterazine-h-h

## O=c1c(Cc2ccccc2)nc2c(Cc3ccccc3)[nH]c(-c3ccccc3)cn1-2 [Coelenterazine-h-h (1193-25-1), coelenterazine-h-h]
40° C., 0 days
  relative peak area percentage at 262 nm: 98.7%
40° C., 1 day
  relative peak area percentage at 262 nm: 98.0%
40° C., 3 days
  relative peak area percentage at 262 nm: 95.1%
40° C., 7 days
  relative peak area percentage at 262 nm: 89.1%
40° C., 15 days
  relative peak area percentage at 262 nm: 74.9%
40° C., 30 days
  relative peak area percentage at 262 nm: 46.0%
60° C., 0 days
  relative peak area percentage at 262 nm: 98.7%
60° C., 1 day
  relative peak area percentage at 262 nm: 94.3%
60° C., 3 days
  relative peak area percentage at 262 nm: 80.0%
60° C., 7 days
  relative peak area percentage at 262 nm: 59.1%
60° C., 15 days
  relative peak area percentage at 262 nm: 0.2%
RT, 0 days
  relative peak area percentage at 262 nm: 98.7%
RT, 1 day
  relative peak area percentage at 262 nm: 98.2%
RT, 3 days
  relative peak area percentage at 262 nm: 97.5%
RT, 7 days
  relative peak area percentage at 262 nm: 94.4%
RT, 15 days
  relative peak area percentage at 262 nm: 86.6%
RT, 30 days
  relative peak area percentage at 262 nm: 85.7%
[1]
  Arrhenius plot intercept: 30.8352
  Arrhenius plot slope: −10650.1
Solution in 50% ethanol and 50% propylene glycol, 20° C., read-out: T1/2 Calculated from Arrhenius (converted)
  half-life at 1.25 mM: 172 days
Solution in 50% ethanol and 50% propylene glycol, 40° C., read-out: T1/2 Calculated from Arrhenius (converted)
  half-life at 1.25 mM: 16.9 days
Solution in 50% ethanol and 50% propylene glycol, 60° C., read-out: T1/2 Calculated from Arrhenius (converted)
  half-life at 1.25 mM: 2.2 days
Solution of 50% ethanol and 50% propylene glycol, 40° C., read-out: T1/2 Estimated from graph (converted)
  half-life at 1.25 mM: 27 days
Solution of 50% ethanol and 50% propylene glycol, 60° C., read-out: T1/2 Estimated from graph (converted)
  half-life at 1.25 mM: 8 days
−20° C., 0 days
  relative peak area percentage at 262 nm: 98.7%
−20° C., 1 day
  relative peak area percentage at 262 nm: 98.6%
−20° C., 3 days
  relative peak area percentage at 262 nm: 98.2%
−20° C., 7 days
  relative peak area percentage at 262 nm: 98.4%
−20° C., 15 days
  relative peak area percentage at 262 nm: 97.9%
−20° C., 30 days
  relative peak area percentage at 262 nm: 98.5%
